Reference: patent publication US6623740B1, “Structurally modified peptides that are resistant to peptidase degradation” (Ludwig Institute for Cancer Research, priority 1997, dated 2003)

Protocol: At different times, an aliquot measuring about 150 μl was removed and the enzymatic reaction stopped by addition of 15 μl trifluoroacetic acid (TFA). Precipitated serum proteins were pelleted by centrifugation at 15000 rpm for 10 min at 4° C. The supernatants were frozen and preserved at −20° C. until analysis.
The peptide and its degradation product(s) were then separated by reverse phase chromatography (RP-HPLC). Peaks corresponding to the different products were quantified. HPLC analysis of the various peptide samples collected at different incubation times was conducted. As well, peptide degradation kinetics including the half-life of the various peptide samples was recorded together with any increase in the degradation products of the peptide samples under investigation.
The following HPLC conditions were used:
i) column: 5-μm 4.6 mm×25 cm, C18 (Beckman),
ii) gradient: 4-20% CH3CN (0.08% TFA in H2O, 0.08% TFA in CH3CN), 0-30 min,
iii) UV detection: 200-300 nm using a Waters 996 photodiode array detector,
iv) chromatograms obtained at 225 and 280 nm were also derived.

C[C@H](NC(=O)[C@@H](N)CCC(=O)O)C(=O)N[C@@H](CC(=O)O)C(=O)N1CCC[C@H]1C(=O)N[C@H](C(=O)NCC(=O)N[C@@H](Cc1c[nH]cn1)C(=O)N[C@@H](CO)C(=O)N[C@@H](Cc1ccc(O)cc1)C(=O)O)[C@@H](C)O [MZ2-E]
t ½ of degradation by peptidase present in human serum: ½
